Data published in patent US8980226B2, “Aerosolized fosfomycin/aminoglycoside combination for the treatment of bacterial respiratory infections” (Gilead Sciences, Inc., priority 2004, dated 2015).
Like-named read-outs stand apart in the source and are kept apart here.

Columns and labels:
Format in all cases: cell-based
[1] = system: 100 P. aeruginosa strains isolated from lung sputum samples from cystic fibrosis patients; assay: MIC50 and MIC90 for 100 P. aeruginosa strains, CF mucin binding model (+mucin); settings: Pseudomonas aeruginosa; for MIC90: read-out: MIC90 Mucin (+)
Protocol: The MICs of fosfomycin alone, tobramycin alone, or combinations of fosfomycin plus tobramycin were determined by the agar-plate dilution method according to NCCLS guidelines (NCCLS, 2003). Bacterial strains were streaked onto Trypic Soy Agar plates (PML Microbiologicals, Wilsonville, Oreg.) containing 5% defibrinated sheep blood (hereafter referred to as blood agar plates) and incubated overnight at 35° C. Two to three bacterial colonies from the overnight cultures were inoculated into 3 mL of sterile normal saline, vortexed briefly, and adjusted to a 0.5 McFarland standard (NCCLS, 2003). The bacterial suspension was diluted 1:40 in sterile normal saline and served as the inoculum. Mueller-Hinton agar plates (hereafter referred to as MHA) were prepared by combining 16 g of agarose (Becton-Dickinson, Sparks, Md.), 22 g of Mueller-Hinton broth powder (Becton-Dickinson, Sparks, Md.), and adjusted to 1 L with distilled water. The agar was sterilized by autoclaving, cooled to 55° C., and supplemented with 25 μg/mL of glucose-6-phosphate (Sigma-Aldrich, St. Louis, Mo.). Twenty-five mL of cooled agar was aliquoted into 50 mL conical tubes and supplemented with appropriate concentrations of antibiotic to achieve concentrations ranging from 0.06 μg/mL to 512 μg/mL. After gently mixing the agar and antibiotic, the suspension was poured into sterile 100 mm petri dishes and allowed to solidify at room temperature. The antibiotic agar plates were inoculated with approximately 2×10^4 CFU/spot with a 48-point inoculator (Sigma-Aldrich, St. Louis, Mo.). The MIC was defined as the lowest concentration of antibiotic (s) that prevented visible growth after incubation for 18-20 hours at 35° C. The efficacy of a particular antibiotic or antibiotic combination on large populations of P. aeruginosa was determined by calculating the MIC50 and MIC90 values. The MIC50 value was defined as the concentration of antibiotic(s) which inhibited 50% of the P. aeruginosa strains. The MIC90 value was defined as the concentration of antibiotic(s) which inhibited 90% of the P. aeruginosa strains (Wiedemann and Grimm, 1996).
The MICs of fosfomycin alone, tobramycin alone, or combinations of fosfomycin plus tobramycin were determined for P. aeruginosa strains in the presence of porcine gastric mucin to evaluate the effect of mucin and protein binding on antibiotic activity. Methodologies were identical to that described in Example 5, Method A, with the exception that 2% (weight/volume) porcine gastric mucin (Sigma Chemical Co., St. Louis, Mo.) was added to the MHA prior to autoclaving.

E. coli ATCC 25922 = assay: MBC/MIC, broth microdilution
Protocol: (§1) “Minimal bactericidal concentration (MBC)” means the lowest concentration of antibiotic that results in ≧3 Log10 of bacterial killing.
(§2) The MICs of amikacin, arbekacin, dibekacin, gentamicin, kanamycin, netilimicin, neomycin, streptomycin, and tobramycin alone were determined for P. aeruginosa ATCC 27853 by the broth-microdilution method according to NCCLS standards (NCCLS, 2003). E. coli ATCC 25922 and S. aureus ATCC 29213 were used as quality control stains. Bacterial strains were streaked onto blood agar plates, and incubated at 35° C. for 18 hours. Two to three bacterial colonies from the overnight cultures were inoculated into 3 mL of sterile normal saline, vortexed briefly, and adjusted to a 0.5 McFarland standard (NCCLS, 2003). The bacterial suspension was diluted 1:100 in cation-adjusted Mueller-Hinton broth (hereafter referred to as CAMHB). Fifty microliters of bacterial inoculum (approximately 2×10^5 CFU/mL) was pipeted into individual wells of 96-well plates containing 50 μl of CAMHB (Remel, Lenexa, Kanas) supplemented with 2-fold dilutions of antibiotics ranging in concentration from 0.125 μg/mL to 128 μg/mL. The MIC was defined as the lowest concentration of antibiotic (s) that prevented visible growth after incubation at 35° C. for 18-24 hours.
(§3) The MBCs of fosfomycin, amikacin, arbekacin, dibikacin, gentamicin, kanamycin B, netilimicin, neomycin, streptomycin, or tobramycin alone for P. aeruginosa ATCC 27853, E. coli ATCC 25922, and S. aureus ATCC 29213 were determined by the broth microdilution method according to NCCLS standards (NCCLS, 1999). Bacterial strains were streaked onto blood agar plates and incubated at 35° C. for 18-24 hours. Two to three bacterial colonies from the overnight cultures were inoculated into 3 mL of sterile normal saline, vortexed briefly, and adjusted to a 0.5 McFarland standard (NCCLS, 2003). Fifty microliters of bacterial inoculum (approximately 2×10^5 CFU/mL) was pipeted into individual wells of 96-well plates containing 50 μl of CAMHB (Remel, Lenexa, Kanas) supplemented with 2-fold dilutions of antibiotics ranging in concentration from 0.125 μg/mL to 128 μg/mL. Plates were incubated at 35° C. for 18-24 hours and MIC determined as described in Example 5, Method C. The contents of wells showing no growth (MIC and above) were mixed with a pipetor and duplicate 10 μl samples spread onto blood agar plates. Culture plates were incubated at 35° C. for 18-24 hours and the number of bacterial colonies on each plate enumerated manually. Rejection values were determined by NCCLS methods which considers the final inoculum size, single or double sampling, pipetting error, and the Poisson distribution of sample responses (NCCLS, 1999). […] The MBC was defined as the ≧3 Log10 decrease in CFU/mL of the original inoculum as described by NCCLS standards (NCCLS, 1999). The MBC/MIC ratios were calculated by dividing the MBC by the MIC.

P. aeruginosa ATCC 27853 = assay: MBC/MIC, broth microdilution
Protocol: as §1, §2, §3

S. aureus ATCC 29213 = assay: MBC/MIC, broth microdilution
Protocol: as §1, §2, §3

[2] = 100 P. aeruginosa strains, 2% porcine gastric mucin

Row | Compound | MIC50 [1, 2] [µg/mL] | MIC90 [1, 2] [µg/mL] | MBC/MIC E. coli (E. coli ATCC 25922) | MBC/MIC P. aeruginosa (P. aeruginosa ATCC 27853) | MBC/MIC Aminoglycoside (P. aeruginosa ATCC 27853; aminoglycoside alone) | MBC/MIC S. aureus (S. aureus ATCC 29213) | MIC90 [1] [µg/mL] | MBC/MIC P. aeruginosa (P. aeruginosa ATCC 27853; listed as fosfomycin)
1 | NC[C@H]1O[C@H](O[C@H]2[C@H](O)[C@@H](O[C@H]3O[C@H](CO)[C@@H](O)[C@H](N)[C@H]3O)[C@H](N)C[C@@H]2N)[C@H](N)C[C@@H]1O [Tobramycin] | 16 | 64 | 1 | 1 | 1 | 8 | – | –
2 | C[C@@H]1O[C@@H]1P(=O)(O)O [Fosfomycin] | 64 | – | 8 | ≧8 | – | 1 | 128 | ≥ 8
